According to PubChem BioAssay (NCI):
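How tested: cells in 96-well plates exposed to compound for 48 hours at five concentrations. At the GI50, growth is halved. At the TGI there is no net growth.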

Key:
Experiment in all cases: DTP human tumour cell line panel, 48 h; in the data active = GI50 below about 0.43 µM; inactive = the rest
[1] = test system: TK-10 renal
[2] = test system: RXF 393 renal
[3] = test system: SK-MEL-5 melanoma
[4] = test system: SK-OV-3 ovarian
[5] = test system: SF-295 CNS
[6] = test system: SR leukemia
[7] = test system: A549 NSCLC
[8] = test system: UACC-257 melanoma
[9] = test system: MOLT-4 leukemia
[10] = test system: LOX IMVI melanoma
[11] = test system: HL-60(TB) leukemia
[12] = test system: RPMI-8226 leukemia
[13] = test system: OVCAR-3 ovarian
[14] = test system: ACHN renal
[15] = test system: IGROV1 ovarian
[16] = test system: SF-268 CNS
[17] = test system: UO-31 renal
[18] = test system: 786-0 renal
[19] = test system: OVCAR-5 ovarian
[20] = test system: K-562 leukemia
[21] = test system: HCT-15 colon
[22] = test system: MALME-3M melanoma
[23] = test system: HOP-92 NSCLC
[24] = test system: CCRF-CEM leukemia
[25] = test system: HT29 colon
[26] = test system: MDA-MB-231 breast
[27] = test system: KM12 colon
[28] = test system: NCI-H522 lung
[29] = test system: COLO 205 colon
[30] = test system: OVCAR-8 ovarian
[31] = test system: A498 renal
[32] = test system: PC-3 prostate
[33] = test system: U251 CNS
[34] = test system: SK-MEL-2 melanoma
[35] = test system: SW-620 colon
[36] = test system: BT-549 breast
[37] = test system: UACC-62 melanoma
[38] = test system: NCI-H23 lung
[39] = test system: DU-145 prostate
[40] = test system: HCC-2998 colon
[41] = test system: EKVX NSCLC
[42] = test system: SK-MEL-28 melanoma
[43] = test system: T-47D breast
[44] = test system: NCI/ADR-RES ovarian
[45] = test system: SNB-19 CNS
[46] = test system: SF-539 CNS
[47] = test system: M14 melanoma
[48] = test system: OVCAR-4 ovarian
[49] = test system: NCI-H226 lung
[50] = test system: SN12C renal
[51] = test system: HS 578T breast
[52] = test system: NCI-H460 lung
[53] = test system: HOP-62 NSCLC
[54] = test system: MCF7 breast
[55] = test system: HCT-116 colon
[56] = test system: MDA-MB-435
[57] = test system: CAKI-1 renal
[58] = test system: SNB-75 CNS

COc1cc([C@H](C)c2ccc3ccccc3c2)cc(OC)c1OC
18 µM: TGI [52]
11.1 µM: TGI [3]
21.1 µM: TGI [33]
28.3 µM: TGI [28]
18.4 µM: TGI [36]
0.745 µM: TGI [11]
10.9 µM: TGI [12]
65.4 µM: TGI [34]
61.6 µM: TGI [4]
active: GI50 [2] 0.22 µM | GI50 [3] 0.26 µM | GI50 [5] 0.201 µM | GI50 [6] 0.0528 µM | GI50 [11] 0.184 µM | GI50 [12] 0.325 µM | GI50 [13] 0.272 µM | GI50 [20] 0.0411 µM | GI50 [21] 0.311 µM | GI50 [24] 0.274 µM | GI50 [25] 0.294 µM | GI50 [27] 0.276 µM | GI50 [28] 0.376 µM | GI50 [29] 0.306 µM | GI50 [31] 0.255 µM | GI50 [32] 0.346 µM | GI50 [33] 0.333 µM | GI50 [35] 0.0974 µM | GI50 [44] 0.145 µM | GI50 [46] 0.297 µM | GI50 [47] 0.197 µM | GI50 [51] 0.303 µM | GI50 [52] 0.332 µM
53 µM: TGI [23]
7.34 µM: TGI [31]
65.1 µM: TGI [30]
> 100 µM: TGI [1] | TGI [2] | TGI [5] | TGI [6] | TGI [7] | TGI [9] | TGI [10] | TGI [13] | TGI [14] | TGI [15] | TGI [16] | TGI [17] | TGI [19] | TGI [20] | TGI [21] | TGI [22] | TGI [24] | TGI [25] | TGI [27] | TGI [32] | TGI [35] | TGI [37] | TGI [38] | TGI [39] | TGI [40] | TGI [41] | TGI [42] | TGI [43] | TGI [44] | TGI [45] | TGI [46] | TGI [47] | TGI [48] | TGI [49] | TGI [50] | TGI [51] | TGI [53]
20 µM: TGI [18]
0.865 µM: TGI [29]
44 µM: TGI [8]
inactive: GI50 [1] 12.2 µM | GI50 [4] 0.594 µM | GI50 [7] 0.595 µM | GI50 [8] 1.97 µM | GI50 [9] 0.504 µM | GI50 [10] 1.03 µM | GI50 [14] 0.857 µM | GI50 [15] 0.804 µM | GI50 [16] 1.67 µM | GI50 [17] 0.665 µM | GI50 [18] 0.536 µM | GI50 [19] 0.997 µM | GI50 [22] 1.36 µM | GI50 [23] 0.908 µM | GI50 [26] 0.877 µM | GI50 [30] 0.499 µM | GI50 [34] 0.527 µM | GI50 [36] 0.848 µM | GI50 [37] 0.499 µM | GI50 [38] 0.696 µM | GI50 [39] 0.494 µM | GI50 [40] 1.24 µM | GI50 [41] 0.941 µM | GI50 [42] 5.25 µM | GI50 [43] 0.626 µM | GI50 [45] 0.601 µM | GI50 [48] 1.17 µM | GI50 [49] 2.94 µM | GI50 [50] 1.08 µM | GI50 [53] 0.578 µM
70.9 µM: TGI [26]

COc1ccc(NC2Oc3cc4c(cc3C(c3cc(OC)c(O)c(OC)c3)C2C)OCO4)cc1 (stereo unspecified)
2.51 µM: TGI [56]
35.2 µM: TGI [22] | TGI [37]
12.3 µM: TGI [20]
32.1 µM: TGI [14]
73.7 µM: TGI [19]
37.3 µM: TGI [42]
11.3 µM: TGI [21]
25.6 µM: TGI [46]
93.6 µM: TGI [49]
60.5 µM: TGI [5]
12.9 µM: TGI [12]
> 100 µM: TGI [8] | TGI [13] | TGI [15] | TGI [54] | TGI [16] | TGI [23] | TGI [25] | TGI [27] | TGI [32] | TGI [35] | TGI [36] | TGI [38] | TGI [39] | TGI [43] | TGI [45] | TGI [47] | TGI [48]
11.7 µM: TGI [50]
6.72 µM: TGI [34]
30 µM: TGI [57]
61.8 µM: TGI [2]
21.7 µM: TGI [40]
17.7 µM: TGI [1]
39 µM: TGI [29]
27.3 µM: TGI [28]
4.34 µM: TGI [3]
98 µM: TGI [44]
29.6 µM: TGI [55]
35.1 µM: TGI [33]
31.7 µM: TGI [31]
15 µM: TGI [58]
23.3 µM: TGI [52]
67.7 µM: TGI [30]
23.5 µM: TGI [7]
11 µM: TGI [26]
31.3 µM: TGI [17]
37.9 µM: TGI [18]
4.51 µM: TGI [11]
